According to PubChem BioAssay (NCI):
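A five-concentration, 48-hour dose response in 96-well plates underlies each endpoint, interpolated linearly between surrounding concentrations. At the TGI there is no net growth.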

Experiments:
Experiment in all cases: NCI-60 cell line screen, 48 h
786-0 renal = test system: 786-0 renal
A549 NSCLC = test system: A549 NSCLC
EKVX NSCLC = test system: EKVX NSCLC
HCT-15 colon = test system: HCT-15 colon
HOP-62 NSCLC = test system: HOP-62 NSCLC
HOP-92 NSCLC = test system: HOP-92 NSCLC
MDA-MB-231 breast = test system: MDA-MB-231 breast
MDA-MB-435 = test system: MDA-MB-435
RPMI-8226 leukemia = test system: RPMI-8226 leukemia
SNB-19 CNS = test system: SNB-19 CNS

Row | Structure (SMILES) | TGI (786-0 renal) [µM] | TGI (A549 NSCLC) [µM] | TGI (EKVX NSCLC) [µM] | TGI (HCT-15 colon) [µM] | TGI (HOP-62 NSCLC) [µM] | TGI (HOP-92 NSCLC) [µM] | TGI (MDA-MB-231 breast) [µM] | TGI (MDA-MB-435) [µM] | TGI (RPMI-8226 leukemia) [µM] | TGI (SNB-19 CNS) [µM]
1 | Cc1ccc(N=Nc2c(O)c(C(=O)Nc3ccccc3)cc3ccccc23)c([N+](=O)[O-])c1 | > 100 | > 100 | > 100 | > 100 | > 100 | > 100 | > 100 | > 100 | > 100 | > 100
2 | CC(C)(CC(O)C#N)/[N+]([O-])=[N+](\[O-])C(C)(C)CC(O)C#N (stereo not given) | 47.5 | > 100 | > 100 | 38.5 | 37.9 | 41.9 | 62.8 | > 100 | 44.8 | > 100
3 | Cc1ccc(/C=C2\CCCC(CN3CCCCC3)C2=O)cc1 (stereo not given) | 4.02 | 33.1 | 32.7 | 4.3 | 35.4 | 4.04 | 3.34 | 3.81 | > 100 | 29.6
4 | COc1cc([C@@H]2c3cc(O)c(OC)cc3C=C(C(N)=O)[C@H]2C(N)=O)ccc1O | > 100 | > 100 | > 100 | > 100 | > 100 | > 100 | > 100 | > 100 | > 100 | > 100
5 | COc1ccc2oc(=N)c(C(=O)Nc3ccccn3)cc2c1 | > 100 | > 100 | > 100 | > 100 | > 100 | > 100 | > 100 | > 100 | > 100 | > 100
6 | COC(=O)c1c(O)ccc2c1C1(Cc3ccccc3C1=O)C(O)O2 (stereo not given) | 30.2 | 69.9 | 68.5 | 54.2 | 28.7 | 60.2 | 52.1 | 31.1 | 17.3 | > 100
7 | O=c1onc2c3ccccc3ncn12 | > 100 | > 100 | > 100 | > 100 | > 100 | > 100 | > 100 | > 100 | > 100 | > 100
8 | O=C(O)CNC(=O)c1c2ccccc2nc2ccccc12 | > 100 | > 100 | > 100 | > 100 | > 100 | > 100 | > 100 | > 100 | > 100 | > 100
9 | COC(=O)c1c(OC(C)=O)ccc2c1c1c(OC(C)=O)c3ccccc3c(OC(C)=O)c1n2Cc1ccccc1 | 37.2 | 34.2 | 10.4 | 14.7 | 25.4 | 3.27 | 37.2 | 27.9 | 5.4 | > 50
10 | Nc1nc(Cl)c(N)c(NCC2(CO)CC(CCCc3ccccc3)C2)n1 (stereo not given) | > 51.7 | > 100 | 10.1 | > 100 | > 100 | > 100 | 99.7 | > 100 | > 50.1 | > 100
11 | CC(C)[C@@H]1ON1C(C)c1ccccc1 (stereo not given in full) | > 100 | > 100 | > 100 | > 100 | > 100 | > 100 | > 100 | > 100 | > 100 | > 100
12 | OC(c1ccc(-c2ccccc2)cc1)C(F)(F)c1nc2ccccc2o1 (stereo not given) | 74.6 | > 100 | > 100 | > 100 | > 73.6 | > 86.3 | > 96.6 | > 100 | > 100 | > 100
13 | CCC(c1c[nH]c2ccc(Br)cc12)c1c[nH]c2ccc(Br)cc12 | 11.2 | 15 | 17.2 | 15 | 22.3 | 8.3 | 25.4 | 11 | 11.3 | 21.4
14 | CN(CCCNC(=O)c1nn(-c2ccc(Cl)cc2Cl)c2c1Cc1ccccc1-2)CCCNC(=O)c1nn(-c2ccc(Cl)cc2Cl)c2c1Cc1ccccc1-2 | 3.21 | 3.64 | 3.26 | 3.38 | 3.09 | 3.06 | 3.18 | 2.57 | 3 | 3.24
15 | c1ccc(CSCCc2ccncc2)cc1 | > 100 | > 100 | > 100 | > 100 | > 100 | > 100 | > 100 | > 100 | > 100 | > 100
16 | CC1=NN(C(=O)CSc2nc3ccc(I)cc3c(=O)n2Cc2ccccc2)C(=O)C1 | > 100 | > 100 | 79.8 | 52.4 | > 100 | 70.7 | > 100 | 75.2 | > 100 | > 100
17 | O=C(CSC1=NCCN1)Nc1ccccc1 | 50.1 | > 100 | > 100 | > 100 | > 100 | 91 | 50.3 | > 100 | > 100 | > 100
18 | O=C1NC(=S)N(c2ccccc2)C1=O | > 100 | > 100 | > 100 | > 100 | > 100 | > 100 | > 100 | > 100 | > 100 | > 100
19 | COc1ccc(N=C2C(=Nc3ccc(OC)cc3)N(c3ccccc3)C(=S)N2N=C=C2Sc3ccccc3N2C)cc1 | > 100 | > 100 | > 100 | > 100 | > 100 | > 100 | > 100 | > 100 | > 100 | > 100
20 | COC(=O)C1=C(OC(=O)c2ccccc2)C(C(=O)OC)[C@]2(O)[C@@H](C(=O)OC)[C@H]1C[C@@H](c1ccccc1)[C@@H]2C(=O)OC (stereo not given in full) | 93.8 | 34.5 | > 100 | 35.4 | 52 | 27.3 | 41.4 | 10.8 | 13.8 | 41.7
21 | CC1(O)OC(=O)C2=C1CCC1C2CCC2(C)C(O)CCC12 (stereo not given) | > 100 | > 100 | > 100 | > 100 | > 100 | > 100 | > 100 | > 100 | > 100 | > 100
22 | CC(C)(C)OC(=O)NCCC1CN(C(=O)c2ccccc2)c2ccccc21 (stereo not given) | > 100 | > 100 | > 100 | > 100 | 83.2 | 94.6 | > 100 | 84.7 | 54.4 | > 100
23 | O=C(/C=C/c1csc(-c2ccccc2)n1)NCc1ccc(C(=O)NCc2ccccc2)cc1 | > 100 | > 100 | > 100 | > 100 | 32.8 | > 100 | 53.5 | > 100 | > 100 | 88.7
24 | CCN(CC)Cc1sc2nc3ccccc3n2c1-c1ccc(OC)cc1 | > 100 | > 100 | 75.1 | > 100 | > 100 | > 100 | > 100 | 12.9 | 33.1 | > 100
25 | CC[C@@H](/C=C\CCC(=O)C[C@H](O)CCC=C(C)C)O[Si](C(C)C)(C(C)C)C(C)C | > 100 | > 100 | > 100 | > 100 | > 100 | > 100 | > 100 | > 100 | > 100 | > 100
